Positions of bridges follow the written chain, without caps; N, C: chain ends. Non-standard residues stand in square brackets, D forms with d. Residues, ends and D or L forms follow the SMILES beside them. S5 = C=CCCC[C@](C)(N)C(=O)O
Test system: SARS-CoV-2 variants, including Delta, BA.2.75, XBB.1.16, and KP.2
Settings: BA.2.75, XBB.1.16, and KP.2, 48 h

Structure (SMILES) | IC50
CC[C@H](C)[C@H](NC(=O)[C@H](C)NC(=O)[C@H](CCSC)NC(=O)[C@H](CCC(=O)O)NC(=O)[C@H](CC(=O)O)NC(=O)[C@H](CO)NC(=O)[C@H](CC(C)C)NC(=O)[C@H](CC(=O)O)NC(=O)[C@H](CC(C)C)NC(=O)[C@H](CC(C)C)NC(=O)[C@@H](NC(=O)[C@@H](NC(=O)[C@H](CC(N)=O)NC(=O)[C@@H](NC(=O)[C@H](CCCCN)NC(=O)[C@H](CO)NC(=O)[C@@H](NC(=O)[C@H](CCC(=O)O)NC(C)=O)[C@@H](C)CC)[C@@H](C)CC)C(C)C)[C@@H](C)O)C(=O)N[C@@H](CC(C)C)C(=O)N[C@@H](CC(C)C)C(=O)N[C@@H](CCC(=O)O)C(=O)N[C@@H](C)C(=O)N[C@H](C(=O)N[C@@H](CCCCN)C(=O)N[C@@H](CCC(N)=O)C(=O)N[C@@H](CC(C)C)C(=O)N[C@@H](CC(N)=O)C(=O)N[C@@H](CC(=O)O)C(=O)N[C@@H](CO)C(=O)N[C@@H](Cc1ccc(O)cc1)C(=O)N[C@H](C(=O)N[C@@H](CC(=O)O)C(=O)N[C@@H](CC(C)C)C(=O)N[C@@H](CCCCN)C(=O)N[C@@H](CCC(=O)O)C(=O)N[C@@H](CC(C)C)C(N)=O)[C@@H](C)CC)[C@@H](C)CC [MjHKU4r-HR2P9] | 384 to 460 nM
CC[C@H](C)[C@H](NC(=O)[C@H](C)NC(=O)[C@H](CCSC)NC(=O)[C@H](CCC(=O)O)NC(=O)[C@H](CC(=O)O)NC(=O)[C@H](CO)NC(=O)[C@H](CC(C)C)NC(=O)[C@H](CC(=O)O)NC(=O)[C@H](CC(C)C)NC(=O)[C@H](CC(C)C)NC(=O)[C@@H](NC(=O)[C@@H](NC(=O)[C@H](CC(N)=O)NC(=O)[C@@H](NC(=O)[C@H](CCCCN)NC(=O)[C@H](CO)NC(=O)[C@@H](NC(=O)[C@H](CCC(=O)O)NC(C)=O)[C@@H](C)CC)[C@@H](C)CC)C(C)C)[C@@H](C)O)C(=O)N[C@@H](CC(C)C)C(=O)N[C@@H](CC(C)C)C(=O)N[C@@]1(C)CCCC=CCCC[C@@](C)(C(=O)N[C@@H](CC(C)C)C(=O)N[C@@H](CC(N)=O)C(=O)N[C@@H](CC(=O)O)C(=O)N[C@@H](CO)C(=O)N[C@@H](Cc2ccc(O)cc2)C(=O)N[C@H](C(=O)N[C@@H](CC(=O)O)C(=O)N[C@@H](CC(C)C)C(=O)N[C@@H](CCCCN)C(=O)N[C@@H](CCC(=O)O)C(=O)N[C@@H](CC(C)C)C(N)=O)[C@@H](C)CC)NC(=O)[C@H](CCCCN)NC(=O)[C@H]([C@@H](C)CC)NC(=O)[C@H](C)NC1=O [MjHKU4r-HR2P10] (Ac-EISKINVTLLDLSDEMAILL[S5]AIK[S5]LNDSYIDLKEL-NH2; staple 21-25) | 85.9 to 192 nM

Reference: paper PMC12432378 (Cell Reports Medicine, 2025)
